ChEMBL document CHEMBL4507295 (2021)

How the values were obtained:
[1] = molecular target: Somatostatin receptor type 4 (Homo sapiens) (UniProt P31391); test: Somatostatin sst4 Eurofins-Panlabs radioligand binding assay; parameters: ligand concentration 0.1 nM, non-specific ligand with concentration 1 µM Somatostatin-14, incubation time 45 min, incubation temperature 25 °C; settings: Compound concentration 10.0 uM
[2] = molecular target: Vasopressin V2 receptor (Homo sapiens) (UniProt P30518); test: Vasopressin V2 Eurofins-Panlabs radioligand binding assay; parameters: ligand concentration 0.5 nM; settings: Compound concentration 10.0 uM
[3] = molecular target: Synaptic vesicular amine transporter (Homo sapiens) (UniProt Q05940); settings: Oryctolagus cuniculus; Compound concentration 10.0 uM
Rattus norvegicus [4] = species on record: Rattus norvegicus; test: Potassium Channel [SKCA] Eurofins-Panlabs radioligand binding assay; parameters: ligand concentration 0.005 nM; settings: Compound concentration 10.0 uM
[5] = molecular target: GABA-A receptor; alpha-5/beta-3/gamma-2 (Homo sapiens) (UniProt P18507+P28472+P31644); test: GABA-alpha5beta3gamma2 (Muscimol binding) Eurofins-Panlabs radioligand binding assay; type: protein-complex assay; parameters: ligand concentration 8 nM; settings: Compound concentration 10.0 uM
[6] = molecular target: Calcitonin receptor (Homo sapiens) (UniProt P30988); test: Inhibition of Calcitonin at 10 µM in the Eurofins-Panlabs radioligand binding assay (Eurofins_assay_213610); settings: Compound concentration 10.0 uM
Caspase-6 (Homo sapiens) = Caspase-6 (Homo sapiens) (UniProt P55212); test: Peptidase, CASP6 (Caspase 6) Eurofins-Panlabs enzyme assay; parameters: substrate with concentration; settings: Compound concentration 10.0 uM
[7] = molecular target: Kappa-type opioid receptor (Homo sapiens) (UniProt P41145); settings: Compound concentration 10.0 uM
Rattus norvegicus [8] = species on record: Rattus norvegicus; test: Inhibition of Glycine, Strychnine-Sensitive at 10 µM in the Eurofins-Panlabs radioligand binding assay (Eurofins_assay_239000); settings: Compound concentration 10.0 uM
Rattus norvegicus [9] = species on record: Rattus norvegicus; test: Adrenergic α1, Non-selective Eurofins-Panlabs radioligand binding assay; type: protein assay; settings: Compound concentration 10.0 uM
[10] = molecular target: T1, Muscarinic acetylcholine receptor M5 (Homo sapiens) (UniProt P08912); test: Inhibition of Muscarinic M5 at 10 µM in the Eurofins-Panlabs radioligand binding assay (Eurofins_assay_253010); parameters: ligand concentration 0.8 nM; settings: Compound concentration 10.0 uM
T1 sequence (whole entry): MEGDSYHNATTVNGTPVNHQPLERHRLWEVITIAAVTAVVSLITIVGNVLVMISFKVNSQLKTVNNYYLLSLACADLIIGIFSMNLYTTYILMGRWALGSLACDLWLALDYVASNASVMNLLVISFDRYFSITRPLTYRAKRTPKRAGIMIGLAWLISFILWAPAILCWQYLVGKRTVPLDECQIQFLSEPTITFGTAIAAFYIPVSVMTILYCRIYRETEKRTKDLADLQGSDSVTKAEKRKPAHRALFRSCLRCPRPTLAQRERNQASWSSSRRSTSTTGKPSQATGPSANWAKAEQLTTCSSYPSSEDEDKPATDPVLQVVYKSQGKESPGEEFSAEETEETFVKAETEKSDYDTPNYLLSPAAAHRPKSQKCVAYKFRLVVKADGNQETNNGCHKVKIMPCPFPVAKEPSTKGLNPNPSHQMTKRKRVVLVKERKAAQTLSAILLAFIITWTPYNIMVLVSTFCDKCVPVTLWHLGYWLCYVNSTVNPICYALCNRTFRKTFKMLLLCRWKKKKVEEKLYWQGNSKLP

[11] = molecular target: Alpha-2C adrenergic receptor (Homo sapiens) (UniProt P18825); test: Adrenergic alpha2C Eurofins-Panlabs radioligand binding assay; parameters: ligand concentration 1 nM, non-specific ligand with concentration 10 µM WB-4101, incubation time 60 min, incubation temperature 25 °C; settings: Compound concentration 10.0 uM
[12] = molecular target: Histamine H3 receptor (Homo sapiens) (UniProt Q9Y5N1); test: Histamine H3 Eurofins-Panlabs radioligand binding assay; settings: Compound concentration 10.0 uM
[13] = molecular target: Prostaglandin F2-alpha receptor (Homo sapiens) (UniProt P43088); test: Prostanoid FP Eurofins-Panlabs radioligand binding assay; parameters: ligand concentration 0.95 nM; settings: Compound concentration 10.0 uM
[14] = molecular target: Glutamate receptor ionotropic, kainate (Rattus norvegicus) (UniProt P22756+Q01812+P42260+P42264+Q63273); test: Inhibition of Glutamate, Kainate at 10 µM in the Eurofins-Panlabs radioligand binding assay (Eurofins_assay_232700); settings: Compound concentration 10.0 uM
[15] = molecular target: Insulin receptor (Homo sapiens) (UniProt P06213); settings: Rattus norvegicus; Compound concentration 10.0 uM
[16] = molecular target: High affinity choline transporter 1 (Homo sapiens) (UniProt Q9GZV3); test: Transporter, Choline Eurofins-Panlabs radioligand binding assay; parameters: ligand concentration 0.75 nM; settings: Rattus norvegicus; Compound concentration 10.0 uM
Bos taurus = species on record: Bos taurus; test: Phosphodiesterase PDE6 Eurofins-Panlabs enzyme assay; parameters: substrate with concentration [3H] cGMP + cGMP, incubation time 20 min, incubation temperature 25 °C; settings: Compound concentration 100.0 uM
[17] = molecular target: C-C chemokine receptor type 1 (Homo sapiens) (UniProt P32246); test: Chemokine CCR1 Eurofins-Panlabs radioligand binding assay; settings: Compound concentration 10.0 uM
[18] = molecular target: hERG (KCNH2) potassium channel (Homo sapiens, UniProt Q12809); test: Potassium Channel hERG Eurofins-Panlabs radioligand binding assay; parameters: ligand concentration 0.05 nM, non-specific ligand with concentration 1 µM L-706,000, incubation time 75 min, incubation temperature 25 °C; settings: HEK-293 cells expressing recombinant human hERG, probe [S35] L-706,000 (radioligand, 0.05 nM), compound concentration 10 uM
hERG (KCNH2) potassium channel, sequence (Q12809 whole entry): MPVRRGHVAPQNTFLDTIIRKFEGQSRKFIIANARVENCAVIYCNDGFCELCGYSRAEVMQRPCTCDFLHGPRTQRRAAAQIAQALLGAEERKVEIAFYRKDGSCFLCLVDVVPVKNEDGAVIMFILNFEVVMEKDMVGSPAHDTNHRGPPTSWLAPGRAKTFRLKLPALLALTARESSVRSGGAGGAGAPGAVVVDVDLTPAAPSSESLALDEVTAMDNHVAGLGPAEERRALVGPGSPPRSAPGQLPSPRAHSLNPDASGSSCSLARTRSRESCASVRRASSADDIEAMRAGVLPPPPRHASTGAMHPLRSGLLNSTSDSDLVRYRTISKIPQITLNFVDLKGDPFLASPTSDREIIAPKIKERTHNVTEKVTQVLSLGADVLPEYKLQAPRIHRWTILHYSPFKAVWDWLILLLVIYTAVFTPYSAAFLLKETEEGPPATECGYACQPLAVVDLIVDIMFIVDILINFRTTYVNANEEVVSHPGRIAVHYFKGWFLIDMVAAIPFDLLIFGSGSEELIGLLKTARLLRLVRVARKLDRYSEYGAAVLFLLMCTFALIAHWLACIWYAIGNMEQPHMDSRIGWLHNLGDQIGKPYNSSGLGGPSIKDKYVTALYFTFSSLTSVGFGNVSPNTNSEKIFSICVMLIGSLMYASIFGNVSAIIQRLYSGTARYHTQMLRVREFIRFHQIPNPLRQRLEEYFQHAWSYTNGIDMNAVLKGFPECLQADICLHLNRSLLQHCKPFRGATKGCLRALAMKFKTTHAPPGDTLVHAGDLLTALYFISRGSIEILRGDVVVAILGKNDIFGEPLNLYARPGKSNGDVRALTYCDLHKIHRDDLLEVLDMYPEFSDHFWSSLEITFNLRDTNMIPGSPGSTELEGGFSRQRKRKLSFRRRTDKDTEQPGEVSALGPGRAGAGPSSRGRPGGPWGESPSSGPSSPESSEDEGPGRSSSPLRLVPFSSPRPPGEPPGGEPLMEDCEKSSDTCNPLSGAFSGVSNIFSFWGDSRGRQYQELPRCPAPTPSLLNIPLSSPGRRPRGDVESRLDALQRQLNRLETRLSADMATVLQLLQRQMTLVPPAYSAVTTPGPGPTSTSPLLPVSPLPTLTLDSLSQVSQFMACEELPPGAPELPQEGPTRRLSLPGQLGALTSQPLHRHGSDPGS

Prostaglandin F2-alpha receptor (Homo sapiens), sequence (P43088 whole entry): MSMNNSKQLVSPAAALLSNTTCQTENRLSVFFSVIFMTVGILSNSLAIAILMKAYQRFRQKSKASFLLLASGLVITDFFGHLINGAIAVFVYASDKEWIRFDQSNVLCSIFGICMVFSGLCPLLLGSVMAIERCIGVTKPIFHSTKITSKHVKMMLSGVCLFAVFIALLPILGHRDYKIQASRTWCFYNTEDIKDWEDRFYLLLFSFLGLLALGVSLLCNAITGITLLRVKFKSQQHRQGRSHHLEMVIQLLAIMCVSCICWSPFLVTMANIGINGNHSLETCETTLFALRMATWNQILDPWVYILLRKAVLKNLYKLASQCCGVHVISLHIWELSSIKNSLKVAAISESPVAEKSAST
Caspase-6 (Homo sapiens), sequence (P55212 24-179 limits assumed): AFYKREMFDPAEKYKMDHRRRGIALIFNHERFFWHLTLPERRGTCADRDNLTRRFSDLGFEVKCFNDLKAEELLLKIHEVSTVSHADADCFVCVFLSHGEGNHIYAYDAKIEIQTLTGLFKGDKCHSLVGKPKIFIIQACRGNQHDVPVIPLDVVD
Caspase-6 (Homo sapiens), sequence (P55212 194-293 limits assumed): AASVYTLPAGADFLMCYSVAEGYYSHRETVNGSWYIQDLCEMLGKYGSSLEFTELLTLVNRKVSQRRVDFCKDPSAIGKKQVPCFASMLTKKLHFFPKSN
High affinity choline transporter 1 (Homo sapiens), sequence (Q9GZV3 whole entry): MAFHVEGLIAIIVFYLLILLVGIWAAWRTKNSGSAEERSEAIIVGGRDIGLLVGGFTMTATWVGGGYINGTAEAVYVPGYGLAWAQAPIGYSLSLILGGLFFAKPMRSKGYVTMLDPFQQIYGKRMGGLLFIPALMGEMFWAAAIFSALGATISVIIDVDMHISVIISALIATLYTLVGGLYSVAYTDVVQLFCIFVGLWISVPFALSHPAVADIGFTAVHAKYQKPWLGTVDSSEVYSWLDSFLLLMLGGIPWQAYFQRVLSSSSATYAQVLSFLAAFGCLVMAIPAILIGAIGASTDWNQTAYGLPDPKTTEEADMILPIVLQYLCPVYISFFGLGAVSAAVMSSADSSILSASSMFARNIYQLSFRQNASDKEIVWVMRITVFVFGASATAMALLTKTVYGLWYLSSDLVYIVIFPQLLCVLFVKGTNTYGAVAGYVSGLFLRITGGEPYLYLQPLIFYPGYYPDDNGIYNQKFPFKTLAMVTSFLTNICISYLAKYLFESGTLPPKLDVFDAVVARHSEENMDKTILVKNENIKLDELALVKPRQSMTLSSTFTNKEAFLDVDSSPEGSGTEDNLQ
Insulin receptor (Homo sapiens), sequence (P06213 28-758 limits assumed): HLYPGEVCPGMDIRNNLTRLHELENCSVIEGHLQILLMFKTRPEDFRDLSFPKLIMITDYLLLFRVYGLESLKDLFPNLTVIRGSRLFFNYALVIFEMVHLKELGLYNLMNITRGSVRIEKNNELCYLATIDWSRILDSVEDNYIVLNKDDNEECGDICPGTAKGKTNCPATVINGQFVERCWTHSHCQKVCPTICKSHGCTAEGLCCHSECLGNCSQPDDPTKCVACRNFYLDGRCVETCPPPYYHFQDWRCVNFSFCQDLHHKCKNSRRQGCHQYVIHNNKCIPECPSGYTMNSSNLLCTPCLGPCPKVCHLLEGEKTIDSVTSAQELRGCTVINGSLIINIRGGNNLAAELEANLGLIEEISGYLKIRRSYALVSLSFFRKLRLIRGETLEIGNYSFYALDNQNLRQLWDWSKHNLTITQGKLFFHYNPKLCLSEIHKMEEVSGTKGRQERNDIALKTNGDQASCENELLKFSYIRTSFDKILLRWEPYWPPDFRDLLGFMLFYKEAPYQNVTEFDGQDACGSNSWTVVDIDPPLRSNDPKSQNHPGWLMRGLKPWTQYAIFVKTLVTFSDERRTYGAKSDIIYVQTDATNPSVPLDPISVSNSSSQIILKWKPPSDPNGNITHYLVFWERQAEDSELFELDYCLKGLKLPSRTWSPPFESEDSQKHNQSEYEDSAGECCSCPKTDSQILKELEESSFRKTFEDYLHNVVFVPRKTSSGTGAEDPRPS
Insulin receptor (Homo sapiens), sequence (P06213 763-1382 limits assumed): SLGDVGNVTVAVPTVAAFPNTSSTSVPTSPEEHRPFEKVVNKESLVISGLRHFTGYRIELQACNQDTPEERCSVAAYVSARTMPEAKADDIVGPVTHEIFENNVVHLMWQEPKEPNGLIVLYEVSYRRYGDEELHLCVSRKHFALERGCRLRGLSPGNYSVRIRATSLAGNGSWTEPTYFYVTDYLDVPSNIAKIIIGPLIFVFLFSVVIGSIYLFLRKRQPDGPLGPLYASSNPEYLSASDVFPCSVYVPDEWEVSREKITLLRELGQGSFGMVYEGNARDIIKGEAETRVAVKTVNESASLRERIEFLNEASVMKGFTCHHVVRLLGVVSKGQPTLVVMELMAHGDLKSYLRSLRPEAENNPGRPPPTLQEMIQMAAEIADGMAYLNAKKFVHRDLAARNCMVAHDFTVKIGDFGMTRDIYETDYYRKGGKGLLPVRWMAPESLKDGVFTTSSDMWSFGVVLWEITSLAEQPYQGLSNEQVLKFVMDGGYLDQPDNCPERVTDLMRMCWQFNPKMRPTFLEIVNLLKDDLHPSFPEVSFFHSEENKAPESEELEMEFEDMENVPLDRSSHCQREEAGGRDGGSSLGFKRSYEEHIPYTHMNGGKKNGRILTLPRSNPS
C-C chemokine receptor type 1 (Homo sapiens), sequence (P32246 whole entry): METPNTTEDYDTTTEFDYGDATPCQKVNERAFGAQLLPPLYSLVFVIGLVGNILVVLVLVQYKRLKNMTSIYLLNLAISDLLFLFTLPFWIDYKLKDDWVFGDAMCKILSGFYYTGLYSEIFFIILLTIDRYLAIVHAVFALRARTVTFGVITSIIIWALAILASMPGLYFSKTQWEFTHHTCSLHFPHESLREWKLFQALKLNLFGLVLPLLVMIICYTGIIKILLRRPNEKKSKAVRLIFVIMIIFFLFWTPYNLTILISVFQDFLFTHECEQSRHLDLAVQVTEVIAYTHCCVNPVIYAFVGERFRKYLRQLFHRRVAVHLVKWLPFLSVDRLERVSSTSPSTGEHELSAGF
Somatostatin receptor type 4 (Homo sapiens), sequence (P31391 whole entry): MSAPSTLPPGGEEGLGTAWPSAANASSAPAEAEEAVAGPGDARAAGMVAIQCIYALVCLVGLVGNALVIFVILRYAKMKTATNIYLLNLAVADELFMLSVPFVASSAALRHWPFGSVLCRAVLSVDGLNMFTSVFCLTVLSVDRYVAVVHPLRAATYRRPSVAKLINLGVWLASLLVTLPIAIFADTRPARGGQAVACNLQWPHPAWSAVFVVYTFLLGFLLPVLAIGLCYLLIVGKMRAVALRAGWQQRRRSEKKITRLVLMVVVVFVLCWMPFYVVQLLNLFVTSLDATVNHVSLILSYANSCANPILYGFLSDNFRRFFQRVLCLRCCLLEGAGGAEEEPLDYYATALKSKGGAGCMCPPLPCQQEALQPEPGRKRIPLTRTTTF
Vasopressin V2 receptor (Homo sapiens), sequence (P30518 whole entry): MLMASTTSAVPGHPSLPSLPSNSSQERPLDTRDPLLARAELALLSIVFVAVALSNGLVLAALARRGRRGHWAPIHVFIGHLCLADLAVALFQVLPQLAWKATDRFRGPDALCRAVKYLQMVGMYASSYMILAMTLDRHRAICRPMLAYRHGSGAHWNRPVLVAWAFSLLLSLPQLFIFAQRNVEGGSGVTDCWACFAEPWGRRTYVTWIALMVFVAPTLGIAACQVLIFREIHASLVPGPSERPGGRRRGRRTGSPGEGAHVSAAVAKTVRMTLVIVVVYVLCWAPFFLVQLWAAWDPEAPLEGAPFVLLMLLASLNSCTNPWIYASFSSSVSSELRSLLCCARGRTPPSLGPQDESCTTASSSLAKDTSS

N#CC1(c2ccccn2)CCN(Cc2cc(C(=O)O)c(=O)n3ccccc23)CC1 [MSD-M1PAM]
inhibition [1]: -1%
inhibition [2]: -2%
inhibition [3]: 9%
inhibition (Rattus norvegicus [4]): -10%
inhibition [5]: 11%
inhibition [6]: -5%
inhibition (Caspase-6 (Homo sapiens)): 13%
inhibition [7]: 2%
inhibition (Rattus norvegicus [8]): 33%
inhibition (Rattus norvegicus [9]): -4%
inhibition [10]: 11%
inhibition [11]: 15%
inhibition [12]: -9%
inhibition [13]: 12%
inhibition [14]: 7%
inhibition [15]: 3%
inhibition [16]: 29%
inhibition (Bos taurus): 5%
inhibition [17]: 8%
inhibition at 75 min, 10 µM [18]: 5% (not active)
